Tests used:
[1] = tested on: S. aureus DSM 20231; experiment: Bliss interaction score (quartile over a dose matrix) (fitness difference); higher = more antagonism (negative = synergy)
Summary of the method: (§1)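 Values were capped at 1 after dividing OD595 at stationary-phase entry by the plate's robust no-drug mean. This ratio is fitness, and single-drug fitness was inferred from the combination data. The Bliss score is observed minus product-expected fitness, given as quartiles over technical, biological and donor/recipient replicates.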

[2] = tested on: S. pneumoniae D39V; experiment: as above
Summary of the method: as §1

[3] = tested on: B. subtilis 168; experiment: as above
Summary of the method: as §1

[4] = tested on: S. aureus Newman; experiment: as above
Summary of the method: as §1

[5] = tested on: S. pneumoniae D39V; experiment: fitness (endpoint OD595 vs no drug) (fraction); higher = more growth
Summary of the method: (§2)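 In 384-well plates at 37 °C, cultures began at OD595 0.01 in 30 µl, with 55 µl used for S. pneumoniae. OD595 readings every 30 min for 14 h were corrected by the first reading. Fitness divides the stationary-phase transition optical density by the robust mean of no-drug control wells. The result is capped at 1.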

[6] = tested on: B. subtilis 168; experiment: as above
Summary of the method: as §2

[7] = tested on: S. aureus Newman; experiment: as above
Summary of the method: as §2
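Throughout, for Bliss interaction score (quartile over a dose matrix): first quartile when negative (synergy) and third quartile when positive (antagonism).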

O=C(O[C@@H]1Cc2c(O)cc(O)cc2O[C@@H]1c1cc(O)c(O)c(O)c1)c1cc(O)c(O)c(O)c1 [EGCG] + CN[C@@H]1[C@H](O[C@H]2[C@H](O[C@H]3[C@H](O)[C@@H](O)[C@H](N=C(N)N)[C@@H](O)[C@@H]3N=C(N)N)O[C@@H](C)[C@]2(O)C=O)O[C@@H](CO)[C@H](O)[C@H]1O [Streptomycin]
Details	Bliss interaction score
[1]	0.136
[2]	0.0781
[3]	0.303
[4]	0.0695

fitness
Details	first compound 6.25 µg/mL	first compound 12.5 µg/mL	first compound 25 µg/mL	first compound 50 µg/mL
[5], partner 2 µg/mL	–	0.887	0.933	0.937
[5], partner 4 µg/mL	–	0.902	0.914	0.968
[5], partner 8 µg/mL	–	0.881	0.943	0.981
[6], partner 2 µg/mL	0.918	–	0.325	–
[6], partner 4 µg/mL	0.823	0.718	0.299	–
[6], partner 8 µg/mL	–	0.522	–	–
[7], partner 1 µg/mL	–	0.774	0.773	0.713
[7], partner 2 µg/mL	–	0.772	0.767	0.747
[7], partner 4 µg/mL	–	–	0.453	–

[5], partner 16 µg/mL, one replicate
Details	fitness
first compound 12.5 µg/mL	0.756
first compound 25 µg/mL	0.759
first compound 50 µg/mL	0.762

CCC[C@@H]1C[C@@H](C(=O)N[C@@H]([C@H]2O[C@H](SC)[C@H](O)[C@@H](O)[C@H]2O)[C@H](C)Cl)N(C)C1 [Clindamycin] + CN(C)c1cc(NC(=O)CNC(C)(C)C)c(O)c2c1C[C@H]1C[C@H]3[C@H](N(C)C)C(O)=C(C(N)=O)C(=O)[C@@]3(O)C(O)=C1C2=O [Tigecycline]
Details	Bliss interaction score
[1]	-0.0949
[2]	-0.0934
[3]	-0.0489
[4]	-0.0653

Details	fitness
[5], first compound 0.0125 µg/mL, partner 0.325 µg/mL	0.668
[5], first compound 0.0125 µg/mL, partner 0.65 µg/mL	0.695
[5], first compound 0.0125 µg/mL, partner 1.3 µg/mL	0.652
[5], first compound 0.015 µg/mL, partner 0.65 µg/mL	0.753
[5], first compound 0.015 µg/mL, partner 1.3 µg/mL	0.755
[5], first compound 0.015 µg/mL, partner 2.6 µg/mL	0.815
[5], first compound 0.025 µg/mL, partner 0.325 µg/mL	0.503
[5], first compound 0.025 µg/mL, partner 0.65 µg/mL	0.461
[5], first compound 0.025 µg/mL, partner 1.3 µg/mL	0.442
[5], first compound 0.03 µg/mL, partner 0.65 µg/mL	0.653
[5], first compound 0.03 µg/mL, partner 1.3 µg/mL	0.66
[5], first compound 0.03 µg/mL, partner 2.6 µg/mL	0.673
[5], first compound 0.05 µg/mL, partner 0.325 µg/mL	0.233
[5], first compound 0.05 µg/mL, partner 0.65 µg/mL	0.2
[5], first compound 0.05 µg/mL, partner 1.3 µg/mL	0.189
[5], first compound 0.06 µg/mL, partner 0.65 µg/mL	0.551
[5], first compound 0.06 µg/mL, partner 1.3 µg/mL	0.557
[5], first compound 0.06 µg/mL, partner 2.6 µg/mL	0.539
[6], first compound 0.0625 µg/mL, partner 0.039 µg/mL	0.596
[6], first compound 0.0625 µg/mL, partner 0.078 µg/mL	0.537
[6], first compound 0.0625 µg/mL, partner 0.156 µg/mL	0.538
[6], first compound 0.125 µg/mL, partner 0.039 µg/mL	0.387
[6], first compound 0.125 µg/mL, partner 0.078 µg/mL	0.38
[6], first compound 0.125 µg/mL, partner 0.156 µg/mL	0.374
[6], first compound 0.25 µg/mL, partner 0.039 µg/mL	0.378
[6], first compound 0.25 µg/mL, partner 0.078 µg/mL	0.365
[6], first compound 0.25 µg/mL, partner 0.156 µg/mL	0.369
[7], first compound 0.0312 µg/mL, partner 0.039 µg/mL	0.708
[7], first compound 0.0312 µg/mL, partner 0.078 µg/mL	0.715
[7], first compound 0.0312 µg/mL, partner 0.156 µg/mL	0.709
[7], first compound 0.125 µg/mL, partner 0.039 µg/mL	0.118
[7], first compound 0.125 µg/mL, partner 0.078 µg/mL	0.112
[7], first compound 0.125 µg/mL, partner 0.156 µg/mL	0.113

fitness, [6], one replicate
Details	first compound 0.0039 µg/mL	first compound 0.0078 µg/mL	first compound 0.0156 µg/mL	first compound 0.0625 µg/mL	first compound 0.125 µg/mL	first compound 0.25 µg/mL
partner 0.039 µg/mL	0.986	0.866	0.862	–	–	–
partner 0.078 µg/mL	≥ 1	0.88	0.831	–	–	–
partner 0.125 µg/mL	–	–	–	0.809	0.656	0.44
partner 0.156 µg/mL	0.906	0.81	0.908	–	–	–
partner 0.25 µg/mL	–	–	–	0.722	0.575	0.342
partner 0.5 µg/mL	–	–	–	0.743	0.601	0.378

C/C(=C\C(=O)OCCCCCCCCC(=O)O)C[C@@H]1OC[C@H](C[C@@H]2O[C@H]2[C@@H](C)[C@H](C)O)[C@@H](O)[C@H]1O [Pseudomonic acid] + CN[C@H](CC(C)C)C(=O)N[C@H]1C(=O)N[C@@H](CC(N)=O)C(=O)N[C@H]2C(=O)N[C@H]3C(=O)N[C@H](C(=O)N[C@H](C(=O)O)c4cc(O)cc(O)c4-c4cc3ccc4O)[C@H](O)c3ccc(c(Cl)c3)Oc3cc2cc(c3O[C@@H]2O[C@H](CO)[C@@H](O)[C@H](O)[C@H]2O[C@H]2C[C@](C)(N)[C@H](O)[C@H](C)O2)Oc2ccc(cc2Cl)[C@H]1O [Vancomycin]
Details	Bliss interaction score
[1]	-0.0086
[2]	0.137
[3]	0.0278
[4]	-0.0276

fitness, [5]
Details	partner 0.03125 µg/mL	partner 0.0625 µg/mL	partner 0.125 µg/mL	partner 0.5 µg/mL
first compound 0.03 µg/mL	0.983	0.973	0.9	–
first compound 0.06 µg/mL	0.873	0.865	–	0.259
first compound 0.12 µg/mL	0.641	0.611	–	0.21

fitness, [7], one replicate
Details	first compound 0.0313 µg/mL	first compound 0.0625 µg/mL	first compound 0.125 µg/mL
partner 0.1875 µg/mL	0.0232	0.0221	0.0473
partner 0.375 µg/mL	0.0206	0.0409	0.0505
partner 0.75 µg/mL	0.0349	0.053	0.0388

Reference: the supplement of paper PMC10627819
